Data published in ChEMBL document CHEMBL4825666, “Antitrypanosomal Lactones from Nectandra barbellata” (J Nat Prod, 2021).
Activity calls are given as the source filed them. The calls are words filed in the database; no cut-off is given here.

Experiments:
Cytochrome P450 1A2 = target: T1, Cytochrome P450 1A2 (Homo sapiens, UniProt P05177); assay: Inhibition of CYP1A2 (unknown origin); format: ADME
T1 sequence (P05177 whole entry): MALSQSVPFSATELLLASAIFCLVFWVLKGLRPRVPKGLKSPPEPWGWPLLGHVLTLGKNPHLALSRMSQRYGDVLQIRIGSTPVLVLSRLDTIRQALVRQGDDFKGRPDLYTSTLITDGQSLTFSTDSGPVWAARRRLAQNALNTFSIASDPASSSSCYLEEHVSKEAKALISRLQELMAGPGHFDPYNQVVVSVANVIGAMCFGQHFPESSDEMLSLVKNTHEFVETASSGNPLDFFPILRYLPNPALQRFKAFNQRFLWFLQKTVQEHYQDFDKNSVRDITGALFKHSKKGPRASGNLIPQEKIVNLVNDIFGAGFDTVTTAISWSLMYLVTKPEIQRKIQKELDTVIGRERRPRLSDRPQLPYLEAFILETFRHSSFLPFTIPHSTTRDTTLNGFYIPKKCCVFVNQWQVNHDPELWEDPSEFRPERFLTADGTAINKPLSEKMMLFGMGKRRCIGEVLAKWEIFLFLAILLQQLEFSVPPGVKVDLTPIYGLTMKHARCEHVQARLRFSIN

Trypanosoma cruzi [1] = assay: Antitrypanosomal activity against Trypanosoma cruzi Y assessed as increase in calcium level at IC50 measured upto 160 min by Fluo-4 AM probe-based spectrofluorimetric method; format: functional, organism-based; conditions: time min <=160
Cytochrome P450 2C19 = Cytochrome P450 2C19 (Homo sapiens, UniProt P33261); assay: Inhibition of CYP2C19 (unknown origin); format: ADME
Cytochrome P450 2C9 = Cytochrome P450 2C9 (Homo sapiens, UniProt P11712); assay: Inhibition of CYP2C9 (unknown origin); format: ADME
Trypanosoma cruzi [2] = assay: Induction of mitochondrial membrane depolarization in trypomastigote forms of Trypanosoma cruzi Y at IC50 measured after 2 hrs by JC-1 staining based flow cytometry; format: functional, organism-based
[3] = Cytotoxicity against mouse NCTC clone 929 cells assessed as reduction in cell viability after 48 hrs by MTT assay; format: cell-based
Trypanosoma cruzi [4] = assay: Antitrypanosomal activity against trypomastigote forms of Trypanosoma cruzi Y assessed as increase in ATP levels at IC50 incubated for 1 hrs by microplate reader method; format: functional, organism-based
Trypanosoma cruzi [5] = assay: Antitrypanosomal activity against trypomastigote forms of Trypanosoma cruzi Y infected in LLC-MK2 cells assessed as parasite growth inhibition by resazurin assay; format: functional, organism-based
Trypanosoma cruzi [6] = assay: Induction of acidocalcisome alkalinization in trypomastigotes form of Trypanosoma cruzi Y assessed as upregulation of Ca2+ level at IC50 using acridine orange measured after 60 min by fluorescent based assay
Cell membrane [7] = assay: Induction of cell membrane permeability in trypomastigote forms of Trypanosoma Cruzi Y at IC50 measured after 120 mins by SYSTOX Green assay; format: subcellular
[8] = Selectivity index, ratio of CC50 for cytotoxicity against mouse NCTC clone 929 cells to IC50 for trypomastigote forms of Trypanosoma cruzi Y infected in LLC-MK2 cells; format: toxicity, cell-based; conditions: read-out: Ratio CC50/IC50
Cytochrome P450 3A4 = Cytochrome P450 3A4 (Homo sapiens, UniProt P08684); assay: Inhibition of CYP3A4 (unknown origin); format: ADME
Cell membrane [9] = assay: Induction of cell membrane permeability in trypomastigote forms of Trypanosoma Cruzi Y at IC50 measured after 80 mins by SYSTOX Green assay; format: subcellular
Trypanosoma cruzi [10] = assay: Induction of ROS generation in trypomastigote forms of Trypanosoma cruzi Y assessed as effect on reactive oxygen species level at IC50 for 2 hrs by fluorimetric microplate reader method; format: functional, organism-based
Cytochrome P450 2D6 = Cytochrome P450 2D6 (Homo sapiens, UniProt P10635); assay: Inhibition of CYP2D6 (unknown origin); format: ADME
Cell membrane [11] = assay: Induction of plasma membrane depolarization in trypomastigote forms of Trypanosoma cruzi Y at IC50 measured after 2 hrs by DiSBAC2(3)-probe based assay
Trypanosoma cruzi [12] = assay: Antitrypanosomal activity against trypomastigote forms of Trypanosoma cruzi Y assessed as increase in ATP levels at IC50 incubated for 2 hrs by microplate reader method; format: functional, organism-based

Chain of Cytochrome P450 2C9 (P11712 whole entry): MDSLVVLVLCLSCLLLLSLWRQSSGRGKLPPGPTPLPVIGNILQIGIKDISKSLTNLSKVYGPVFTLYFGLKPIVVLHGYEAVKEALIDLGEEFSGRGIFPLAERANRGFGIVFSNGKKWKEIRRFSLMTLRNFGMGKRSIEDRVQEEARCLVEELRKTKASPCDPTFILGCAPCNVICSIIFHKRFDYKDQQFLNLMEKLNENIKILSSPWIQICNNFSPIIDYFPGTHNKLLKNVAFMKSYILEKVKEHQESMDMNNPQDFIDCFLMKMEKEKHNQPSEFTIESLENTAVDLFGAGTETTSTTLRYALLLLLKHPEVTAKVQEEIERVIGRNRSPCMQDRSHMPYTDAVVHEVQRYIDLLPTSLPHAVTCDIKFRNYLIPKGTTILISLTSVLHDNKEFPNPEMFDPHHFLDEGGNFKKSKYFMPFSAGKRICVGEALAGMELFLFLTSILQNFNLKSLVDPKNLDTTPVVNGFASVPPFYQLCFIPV
Chain of Cytochrome P450 2C19 (P33261 whole entry): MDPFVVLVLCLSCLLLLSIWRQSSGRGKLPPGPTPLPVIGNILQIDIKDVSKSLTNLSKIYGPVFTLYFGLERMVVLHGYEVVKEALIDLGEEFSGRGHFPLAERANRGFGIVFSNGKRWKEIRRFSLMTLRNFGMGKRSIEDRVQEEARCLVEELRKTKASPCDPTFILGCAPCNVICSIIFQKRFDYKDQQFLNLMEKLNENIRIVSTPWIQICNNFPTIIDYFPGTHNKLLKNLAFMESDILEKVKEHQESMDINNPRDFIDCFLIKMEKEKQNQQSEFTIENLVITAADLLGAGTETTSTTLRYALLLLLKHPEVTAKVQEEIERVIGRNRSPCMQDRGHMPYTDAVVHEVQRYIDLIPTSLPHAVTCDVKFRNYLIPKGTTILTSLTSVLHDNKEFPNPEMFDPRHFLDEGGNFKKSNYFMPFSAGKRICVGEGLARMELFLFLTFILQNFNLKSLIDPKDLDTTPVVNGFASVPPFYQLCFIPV
Chain of Cytochrome P450 3A4 (P08684 whole entry): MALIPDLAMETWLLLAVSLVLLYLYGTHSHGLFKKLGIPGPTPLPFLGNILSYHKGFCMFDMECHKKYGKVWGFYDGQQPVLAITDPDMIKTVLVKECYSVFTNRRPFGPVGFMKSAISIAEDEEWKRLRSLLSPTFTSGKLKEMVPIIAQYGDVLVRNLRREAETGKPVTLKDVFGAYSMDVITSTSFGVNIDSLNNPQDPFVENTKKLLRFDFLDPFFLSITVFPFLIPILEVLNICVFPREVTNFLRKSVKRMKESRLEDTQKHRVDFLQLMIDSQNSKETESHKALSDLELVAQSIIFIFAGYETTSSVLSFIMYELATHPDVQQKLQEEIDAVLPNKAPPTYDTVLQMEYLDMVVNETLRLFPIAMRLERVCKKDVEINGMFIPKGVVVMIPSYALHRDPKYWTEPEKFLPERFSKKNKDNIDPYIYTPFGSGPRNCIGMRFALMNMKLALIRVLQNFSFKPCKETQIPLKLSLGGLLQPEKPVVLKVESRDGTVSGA
Chain of Cytochrome P450 2D6 (P10635 whole entry): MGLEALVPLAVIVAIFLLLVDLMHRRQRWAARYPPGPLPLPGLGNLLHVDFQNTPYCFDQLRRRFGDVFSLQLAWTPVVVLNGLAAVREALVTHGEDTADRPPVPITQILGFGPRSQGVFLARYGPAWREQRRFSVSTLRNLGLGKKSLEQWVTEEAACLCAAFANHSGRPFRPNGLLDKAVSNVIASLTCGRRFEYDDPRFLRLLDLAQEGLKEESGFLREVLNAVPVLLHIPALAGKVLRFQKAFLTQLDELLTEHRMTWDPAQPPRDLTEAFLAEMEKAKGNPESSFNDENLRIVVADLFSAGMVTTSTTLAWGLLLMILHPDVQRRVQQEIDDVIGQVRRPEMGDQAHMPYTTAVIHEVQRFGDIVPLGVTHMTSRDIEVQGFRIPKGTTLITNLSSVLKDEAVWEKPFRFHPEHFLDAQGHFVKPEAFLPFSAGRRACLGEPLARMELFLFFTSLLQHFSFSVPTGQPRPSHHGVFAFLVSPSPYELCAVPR

| inhibition (INH) (Cytochrome P450 1A2) | inhibition (INH) (Cytochrome P450 2C19) | inhibition (INH) (Cytochrome P450 2C9) | IC50 (Trypanosoma cruzi [5]) [µM] | Activity (Trypanosoma cruzi [6]) | inhibition (INH) (Cytochrome P450 3A4) | inhibition (INH) (Cytochrome P450 2D6) | Activity (Cell membrane [11]) | Compound | Activity (Trypanosoma cruzi [1]) | Activity (Trypanosoma cruzi [2]) | CC50 at 48 h [3] [µM] | Activity (Trypanosoma cruzi [4]) | Activity (Cell membrane [7]) | selectivity ratio [8] | Activity (Cell membrane [9]) | Activity (Trypanosoma cruzi [10]) | Activity (Trypanosoma cruzi [12]) |
| --- | --- | --- | --- | --- | --- | --- | --- | --- | --- | --- | --- | --- | --- | --- | --- | --- | --- |
| Active | Active | Active | 13.1 | Active | Active | Active | Active | C=CCCCCCCCCCCCCC/C=C1/C[C@H](CO)OC1=O | Active | Active | > 200 | Active | inactive | > 15.3 | Active | inactive |  |
| Not Active | Not Active | Not Active | 2.1 | Active | Not Active | Not Active | Active | CCCCCCCCCCCCCCCCCCCCC/C=C1/C[C@H](CO)OC1=O | Active | Active | > 200 | inactive | inactive | > 95.2 | Active | inactive | inactive |
| Active | Active | Active | 4 |  | Active | Active | Active | CCCCCCCCCCCCCCC/C=C1/C[C@H](CO)OC1=O |  |  | 71.2 |  |  | 17.8 |  |  |  |

| Compound | inhibition (INH) (Cytochrome P450 1A2) | inhibition (INH) (Cytochrome P450 2C19) | inhibition (INH) (Cytochrome P450 2C9) | IC50 (Trypanosoma cruzi [5]) [µM] | Activity (Trypanosoma cruzi [6]) | inhibition (INH) (Cytochrome P450 3A4) | inhibition (INH) (Cytochrome P450 2D6) | Activity (Cell membrane [11]) | Activity (Trypanosoma cruzi [1]) | Activity (Trypanosoma cruzi [2]) | CC50 at 48 h [3] [µM] | Activity (Trypanosoma cruzi [4]) | Activity (Cell membrane [7]) | selectivity ratio [8] | Activity (Cell membrane [9]) | Activity (Trypanosoma cruzi [10]) | Activity (Trypanosoma cruzi [12]) |
| --- | --- | --- | --- | --- | --- | --- | --- | --- | --- | --- | --- | --- | --- | --- | --- | --- | --- |
| O=C(Cn1ccnc1[N+](=O)[O-])NCc1ccccc1 [BENZNIDAZOLE] |  |  |  | 16.4 |  |  |  |  |  |  | > 200 |  |  | > 12.2 |  |  |  |
